From patent US20160237511A1, “METHODS FOR D[…] SENSITIVITY TO VIRAL INHIBITORS” (priority 2013, published 2016)

Assays:
[1] = tested on: replicons containing patient-derived NS5B regions from GT1, GT2, GT3, and GT4 viruses; experiment: PhenoSense HCV NS5B Assay, luciferase replicon panel across genotypes; format: cell-based, hepatitis C virus (HCV); details: for variation in susceptibility within and between genotypes: GT1-GT4 chimeric replicons, IC50/IC95 fold change
Description: Most samples were received as frozen plasma and were accompanied by information including HCV genotype and/or subtype (e.g., 1a, 1b, 2, 3, 4) and viral load. Samples were thawed and stored in frozen aliquots if necessary, and a 200 μL aliquot was processed. Virus particles were disrupted by addition of lysis buffer containing a chaotropic agent. Genomic viral RNA (vRNA) was extracted from viral lysates using oligo-nucleotide linked magnetic beads. Purified vRNA was used as a template for first-strand cDNA synthesis in a reverse transcriptase (RT) reaction. The resulting cDNA was used as the template for the first round of a nested polymerase chain reaction (PCR) that results in the amplification of the entire NS5B region. Due to the sequence variation between different genotypes, specific RT and first and second round PCR primers were used. If genotype and/or subtype information was not available, more than one primer set can be used sequentially or in parallel.
The second round (nested) PCR amplification primer set contained restriction endonuclease recognition/cleavage sites that enable cloning of NS5B amplification products into an HCV replicon resistance test vector (RTV) for phenotypic drug susceptibility analysis. […] Plasmid DNA was purified from bacterial cultures, using silica column chromatography, and was quantified by spectrophotometry.
Prior to in vitro transcription of the RTV, the plasmid DNA template was linearized by restriction endonuclease digestion and column purified. […] In vitro transcribed RNA was column purified, quantified, and the integrity was evaluated using electrophoretic separation.
RTV RNA was electroporated into a Huh7 cell line, and electroporated cells were incubated in the absence and presence of serially diluted inhibitors. RNA input was monitored by measuring the amount of luciferase activity produced in the electroporated cells at 4 hours post-electroporation. Luciferase activity is expressed as relative light units (RLU). […]

[2] = tested on: GT1 (a/b) chimeric replicons (patient-derived NS5B); experiment: PhenoSense HCV NS5B Assay, GT1 chimeric replicons; format: cell-based, hepatitis C virus (HCV); details: GT1a/b NS5B replicons
Description: (§1) RTV RNA was electroporated into a Huh7 cell line, and electroporated cells were incubated in the absence and presence of serially diluted inhibitors. RNA input was monitored by measuring the amount of luciferase activity produced in the electroporated cells at 4 hours post-electroporation. Luciferase activity is expressed as relative light units (RLU). Replication capacity (RC) was determined by evaluating luciferase activity at 72-96 hours postelectroporation in the absence of inhibitor, relative to RNA input and a control reference replicon RTV (Con1). A replication defective Con1 replicon (Con1 polymerase defective) was utilized to determine assay background (data not shown). Inhibitor susceptibility was determined by evaluating the ability of RTVs to replicate in the absence and presence of inhibitor at 72-96 hours post-electroporation. The % inhibition at each serial diluted inhibitor concentration was derived as follows:
(§2) [1−([…])]×100
(§3) Inhibitor susceptibility profiles (curves) were derived from these values, and inhibition data (e.g., IC50, the inhibitor concentration required to reduce virus replication by 50%; and IC95, the inhibitor concentration required to reduce virus replication by 95%) was extrapolated from fitted curves. […]

[3] = tested on: GT2 (a/b/k) chimeric replicons (patient-derived NS5B); experiment: PhenoSense HCV NS5B Assay, GT2 chimeric replicons; format: cell-based, hepatitis C virus (HCV); details: for susceptibility of GT2 chimeric replicons: Example 4, IC50 fold change, compared to GT1 chimeric replicons
Description: as §1, §2
(§4) Inhibitor susceptibility profiles (curves) were derived from these values, and inhibition data (e.g., IC50, the inhibitor concentration required to reduce virus replication by 50%; and IC95, the inhibitor concentration required to reduce virus replication by 95%) was extrapolated from fitted curves. Inhibition data are reported as fold-change relative to that of a reference RTV (e.g., IC50 (sample)/IC50 (reference)) processed in the same assay batch (e.g., IC50 fold-change (FC) from reference). An example of the PhenoSense® HCV NS5B Assay workflow is shown in FIG. 1, and a representative inhibitor susceptibly curve is shown in FIG. 2.
(§5) To determine the susceptibility of different genotype viruses to various inhibitors, the PhenoSense® HCV NS5B Assay was used. A panel of replicons were generated that contained patient-derived NS5B regions from GT1 (a/b), GT2 (a/b/k), GT3 (a/unknown), and GT4 (a/d/n/unknown) viruses. The various chimeric replicons were used in the phenotypic susceptibility assays described herein. […]

[4] = tested on: GT3 (a/unknown) chimeric replicons (patient-derived NS5B); experiment: PhenoSense HCV NS5B Assay, GT3 chimeric replicons; format: cell-based, hepatitis C virus (HCV); details: Example 4; for susceptibility of GT3 chimeric replicons: IC50 fold change, compared to GT1 chimeric replicons
Description: as §1, §2, §4, §5

[5] = tested on: GT4 (a/d/n/unknown) chimeric replicons (patient-derived NS5B); experiment: PhenoSense HCV NS5B Assay, GT4 chimeric replicons; format: cell-based, hepatitis C virus (HCV); details: Example 4; IC50 fold change, compared to GT1 chimeric replicons
Description: as §1, §2, §3

HCV infection = details: cited from earlier work
[6] = non-primate animal species; cited from earlier work

| Compound | variation in susceptibility within and between genotypes [1] | susceptibility among GT1 replicons [2] | susceptibility of GT2a compared to GT2b chimeric replicons ([3]; Example 4 (FIG. 8, FIG. 9)) | susceptibility of GT2 chimeric replicons [3] | susceptibility of GT3 viruses compared to GT2 [4] | susceptibility of GT3 chimeric replicons [4] | susceptibility of GT4 chimeric replicons [5] | most common adverse effects (HCV infection; administered in combination with PEG-IFN) | reported adverse effects (HCV infection; administered in combination with ribavirin) | IC FC range ([1]; IC fold change vs Con1 reference, range over GT1-GT4 viruses (FIG. 6, FIG. 10)) | half-life (HCV infection; in the body) | anemia (HCV infection; patients) | teratogenic effects [6] |
| --- | --- | --- | --- | --- | --- | --- | --- | --- | --- | --- | --- | --- | --- |
| CC(C)OC(=O)[C@H](C)N[P@](=O)(OC[C@H]1O[C@@H](n2ccc(=O)[nH]c2=O)[C@](C)(F)[C@@H]1O)Oc1ccccc1 [SOF, sofosbuvir] | more variable between genotypes | similar | more increased susceptibility | increased susceptibility | reduced susceptibility | significantly reduced | significantly reduced | fatigue, headache, nausea, insomnia, and anemia | fatigue and headache |  |  |  |  |
| NC(=O)c1ncn([C@@H]2O[C@H](CO)[C@@H](O)[C@H]2O)n1 [RBV, ribavirin] | more variable between genotypes | similar |  | statistically significant increases |  | particularly susceptible | particularly susceptible |  |  | 25 | long half-life | cause of anemia | Significant teratogenic effects |
